Data taken from patent publication US5707976A, “Substituted propane-2-OL derivatives” (Richter Gedeon Vegyeszeti Gyar Rt., priority 1993, dated 1998).
≈ marks a conversion by molar mass, not a printed value. Like-named read-outs stand apart in the source and are kept apart here.

Columns and labels:
[1] = tested on: Candida albicans; assay: Densitometric measurement of the propagation of yeast fungi (BIOSCREEN C), minimal inhibitory concentration; assay type: cell-based; details: for MIC: Candida albicans
Procedure: Densitometric measurement of the propagation of yeast fungi
A microbiological analyzer called BIOSCREEN C (LAB-SYSTEMS, Helsinki, Finland) was used to the measurements. From the test compounds first a stock solution of a concentration of 50 mg/ml, then in 15 steps a bisecting dilution series was prepared with dimethyl sulfoxide. From every dilution step 10 μl each was introduced into the cells of the analysator. Then 390 μl of an aqueous nutrient solution was piperred into the cells. In the mixtures obtained the cells of the yeasts, e.g. Candida albicans, cans, were suspended in such an amount that the optical density of the suspension obtained be about 0.1. Young cultures, shaken at 30° C. for about 12 hours, were used in the preparation of the suspensions. The composition of the aqueous nutrient solution was as follows: 1% by weight of glucose, 0.5% by weight of yeast extract (a product of the firm OXOID Ltd, Great Britain, under the catalogue No. L21) and 0.5% by weight of nutrient broth (a product of the firm OXOID Ltd, Great Britain, under the catalogue No. CM 1/2). The concentration of the compounds to be tested in the cells corresponded to 1250, 625, 312, 156, 78, 39, 19, 9, 4, 2, 1, 0.6, 0.3, 0.15 and 0.07 μg/ml, resp. The densitometric measurement of the cultures was carried out during an incubation at 37° C. for 30 hours. The change in the turbidity of the culture, which can be followed through optical measurement, is proportional to the propagation of the yeast fungi.
As the minimal inhibitory concentration (MIC) of this test that minimal concentration of the tested compound was determined which was able to prevent totally the propagation of the fungus.

[2] = tested on: other Candida species and other pathogenic fungi; assay: in vitro tests, full inhibition of other Candida species and other pathogenic fungi; assay type: cell-based; details: read-out: dose of full inhibition
From the text: Mainly this resistant species causes the disease called "candidiasis" which is quite wide-spread and very difficult to influence.

[3] = 30 h, read-out: MIC values of the individual tests

SMILES	MIC [1, 3] [µg/mL]	further results
C[Si](C)(C)OC(Cn1cncn1)(Cn1cncn1)c1ccc(F)cc1F [Example 1, 2-(2,4-Difluorophenyl)-1,3-bis(1,2,4-triazol-1-yl)-2-(trimethylsilyloxy)propane]	150 (≈ 396 µM)	effectiveness against Candida albicans compared with the active ingredient of fluconazole ([1]; factor missing in the printed text): times more effective
C[Si](C)(C)OC(Cn1ccnc1)(Cn1cncn1)c1ccc(F)cc1F (stereo not shown) [Example 3, 1-(Imidazol-1-yl)-2-(2,4-difluorophenyl)-3-(1,2,4-triazol-1-yl)-2-(trimethylsilyloxy) propane]	150 (≈ 397 µM)	–
C[Si](C)(C)OC(CCl)(Cn1cncn1)c1ccc(F)cc1F (stereo not shown) [Example 5, 1-Chloro-2-(2,4-difluorophenyl)-3-(1,2,4-triazol-1-yl)-2-(trimethylsilyloxy) propane]	9 (≈ 26 µM)	–
CC(Cn1cncn1)(O[Si](C)(C)C)c1ccc(F)cc1F (stereo not shown) [Example 6, 2-(2,4-Difluorophenyl)-3-(1,2,4-triazol-1-yl)-2-(trimethylsilyloxy)propane]	150 (≈ 482 µM)	–
C[Si](C)(C)OC(CCl)(Cn1ccnc1)c1ccc(F)cc1F (stereo not shown) [Example 8, 1-Chloro-2-(2,4-difluorophenyl)-3-(imidazol-1-yl)-2-(trimethylsilyloxy)propane]	19 (≈ 55.1 µM)	–
OC(Cn1cncn1)(Cn1cncn1)c1ccc(F)cc1F [fluconazole, 2-(2,4-difluorophenyl)-1,3-bis(1,2,4-triazol-1-yl)propane-2-ol, reference compound]	2500 (≈ 8160 µM)	effect against Candida albicans (in words) [1]: relatively weak effect; MIC ([1]; in vitro, read-out: dose of full inhibition): 2500 µg/mL (≈ 8160 µM); MIC [2]: 0.1 to 10 µg/mL (≈ 0.327 to 32.7 µM)
